According to patent publication US20200267980A1, “Herbicidally Active Pyridyl-/Pyrimidyl-Pyrimidine Derivatives” (Syngenta Participations AG, priority 2017, published 2020):

Legend:
Assay type in all cases: in vivo
Avena fatua (AVEFA) [1] = experiment: Post-emergence herbicidal activity, glasshouse pot test; conditions: 1000 g/ha, post-emergence spray after 8 days cultivation, evaluated after 13 days, damage score 0-5
Outline: (§1)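 Pot-grown plants were sprayed 8 days after sowing (post-emergence) with active ingredient in acetone/water 50:50 containing 0.5% Tween 20. Glasshouse conditions were 24/16 °C, 14 h light and 65% humidity. Damage was scored 0 (none) to 5 (total) after 13 days.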

[2] = system: Echinochloa crus-galli (ECHCG); experiment: as above; design: key: 5=total damage to plant; 0=no damage to plant; conditions: 1000 g/ha, post-emergence spray after 8 days cultivation, evaluated after 13 days, damage score 0-5
Outline: as §1

[3] = system: Triticum aestivium (TRZAW); experiment: as above; design: key: 5=total damage to plant; 0=no damage to plant; conditions: 1000 g/ha, post-emergence spray after 8 days cultivation, evaluated after 13 days, damage score 0-5
Outline: as §1

[4] = system: Alopecurus myosuroides (ALOMY); experiment: as above; design: key: 5=total damage to plant; 0=no damage to plant; conditions: 1000 g/ha, post-emergence spray after 8 days cultivation, evaluated after 13 days, damage score 0-5
Outline: as §1

Lolium perenne (LOLPE) [5] = experiment: as above; design: key: 5=total damage to plant; 0=no damage to plant; conditions: 1000 g/ha, post-emergence spray after 8 days cultivation, evaluated after 13 days, damage score 0-5
Outline: as §1

Setaria faberi (SETFA) [6] = experiment: as above; design: key: 5=total damage to plant; 0=no damage to plant; conditions: 1000 g/ha, post-emergence spray after 8 days cultivation, evaluated after 13 days, damage score 0-5
Outline: as §1

[7] = system: Echinochloa crus-galli (ECHCG); experiment: Pre-emergence herbicidal activity, glasshouse pot test; design: key: 5=total damage to plant; 0=no damage to plant; conditions: 1000 g/ha, pre-emergence spray, evaluated after 13 days, damage score 0-5
Outline: (§2)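 In a glasshouse pot test (24/16 °C day/night, 14 h light, 65% humidity), sown seeds are sprayed after one day with formulated compound (acetone/water 50:50, 0.5% Tween 20). Plants are watered twice daily and assessed at day 13, where 5 means total damage and 0 none.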

[8] = system: Triticum aestivium (TRZAW); experiment: as above; design: key: 5=total damage to plant; 0=no damage to plant; conditions: 1000 g/ha, pre-emergence spray, evaluated after 13 days, damage score 0-5
Outline: as §2

Avena fatua (AVEFA) [9] = experiment: as above; design: key: 5=total damage to plant; 0=no damage to plant; conditions: 1000 g/ha, pre-emergence spray, evaluated after 13 days, damage score 0-5
Outline: as §2

[10] = system: Alopecurus myosuroides (ALOMY); experiment: as above; design: key: 5=total damage to plant; 0=no damage to plant; conditions: 1000 g/ha, pre-emergence spray, evaluated after 13 days, damage score 0-5
Outline: as §2

Lolium perenne (LOLPE) [11] = experiment: as above; design: key: 5=total damage to plant; 0=no damage to plant; conditions: 1000 g/ha, pre-emergence spray, evaluated after 13 days, damage score 0-5
Outline: as §2

Setaria faberi (SETFA) [12] = experiment: as above; design: key: 5=total damage to plant; 0=no damage to plant; conditions: 1000 g/ha, pre-emergence spray, evaluated after 13 days, damage score 0-5
Outline: as §2

| Compound | Control of weed species after post-emergence application, AVEFA (Avena fatua (AVEFA) [1]) | Control of weed species after post-emergence application, ECHCG [2] | Control of weed species after post-emergence application, TRAZW [3] | Control of weed species after post-emergence application, ALOMY [4] | Control of weed species after post-emergence application, LOLPE (Lolium perenne (LOLPE) [5]) | Control of weed species after post-emergence application, SETFA (Setaria faberi (SETFA) [6]) | Control of weed species after pre-emergence application, ECHCG [7] | Control of weed species after pre-emergence application, TRAZW [8] | Control of weed species after pre-emergence application, AVEFA (Avena fatua (AVEFA) [9]) | Control of weed species after pre-emergence application, ALOMY [10] | Control of weed species after pre-emergence application, LOLPE (Lolium perenne (LOLPE) [11]) | Control of weed species after pre-emergence application, SETFA (Setaria faberi (SETFA) [12]) |
| --- | --- | --- | --- | --- | --- | --- | --- | --- | --- | --- | --- | --- |
| O=C(Nc1cnc(-c2cncc(F)c2)nc1C(F)(F)F)C1CCCCC1 [Compound F27] | 1 | 3 | 0 | 0 | 0 | 2 | 0 | 0 | 0 | 0 | 0 | 0 |
| CC(C)(C)C(=O)Nc1cnc(-c2cncc(F)c2)nc1C(F)(F)F [Compound F6] | 3 | 5 | 1 | 1 | 2 | 4 | 4 | 0 | 2 | 0 | 1 | 3 |
| O=C(Nc1cnc(-c2cncc(F)c2)nc1C(F)(F)F)C(Cl)Cl [Compound F8] | 2 | 4 | 1 | 1 | 2 | 5 | 4 | 1 | 1 | 0 | 1 | 4 |
| CC(C)C(=O)Nc1cnc(-c2cncnc2)nc1C(F)(F)F [Compound F32] | 3 | 4 | 1 | 1 | 2 | 4 | 4 | 1 | 1 | 1 | 1 | 4 |
| COCCC(=O)Nc1cnc(-c2cncnc2)nc1C(F)(F)F [Compound F16] | 3 | 5 | 1 | 1 | 2 | 5 | 4 | 0 | 1 | 0 | 1 | 5 |
